Values of other authors as cited in article PMC9788431, “Combination of Docking-Based and Pharmacophore-Based Virtual Screening Identifies Novel Agonists That Target the Urotensin Receptor” (Molecules, 2022).
“And” between values parts separate entries of the source, which are not always exact repeats. Equal values may be shown once. Non-standard residues stand in square brackets, D forms with d. Residues, ends and D or L forms follow the SMILES beside them.

Biological target: T1, UT receptor (Homo sapiens, UniProt Q9UKP6)
T1 construct: SNAP-tag; expressed in transfected cells; host or cells: 293A8 (HEK293A stably transfected with the UT receptor); inferred, the calcium-assay paragraph names no cells
T1 sequence (Q9UKP6 1-389): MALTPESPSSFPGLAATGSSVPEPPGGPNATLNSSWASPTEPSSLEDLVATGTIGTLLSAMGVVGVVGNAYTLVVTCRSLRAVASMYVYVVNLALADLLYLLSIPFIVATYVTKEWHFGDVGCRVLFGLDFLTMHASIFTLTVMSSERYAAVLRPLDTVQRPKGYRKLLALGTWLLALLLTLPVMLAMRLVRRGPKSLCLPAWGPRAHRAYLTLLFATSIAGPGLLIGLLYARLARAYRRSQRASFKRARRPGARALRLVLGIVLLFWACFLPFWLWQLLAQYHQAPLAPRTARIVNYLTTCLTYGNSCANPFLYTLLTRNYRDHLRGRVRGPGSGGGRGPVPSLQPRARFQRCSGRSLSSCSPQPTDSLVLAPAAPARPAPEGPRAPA
Settings: agonist; Table S1 benchmarking ligands; ref ChEMBL database and others; cited from earlier work

Cc1cc(C)c(C(=O)OC(CCN(C)C)c2ccc(Cl)cc2)cc1C (stereo not drawn) [CHEMBL206832]
EC50: 468 nM

CN(C)CCC(NC(=O)CCc1ccccc1)c1ccc2ccccc2c1 (stereo not drawn) [CHEMBL229709]
EC50: 603 nM

CN(C)CCC(NC(=O)c1ccc(-c2ccc3ccccc3c2)cc1)c1ccc(Cl)cc1 (stereo not drawn) [CHEMBL572391]
EC50: 309 nM

COc1ccc(/C=C/C2=NN(CCCCN)C(=O)N(Cc3ccc(-c4ccccc4)cc3)c3ccccc32)cc1 [CHEMBL4071437]
EC50: 7.08 nM and 8.51 nM

CO[C@@H](C(=O)N[C@@H](CCN(C)C)c1ccc2ccccc2c1)c1ccccc1 [CHEMBL572454]
EC50: 741 nM

CN(C)CCC(NC(=O)Nc1ccc2ccccc2c1)c1ccc(Cl)cc1 (stereo not drawn) [CHEMBL206551]
EC50: 288 nM

CN(C)CCC(NC(=O)c1ccc(Oc2ccccc2)cc1)c1ccc(Cl)cc1 (stereo not drawn) [CHEMBL203626]
EC50: 66.1 nM

CN(C)CCC(NC(=O)c1ccc(-c2ccccc2)cc1)c1ccc2ccccc2c1 (stereo not drawn) [CHEMBL574527]
EC50: 120 nM

CC(C)[C@H](NC(=O)[C@H](CS)NC(=O)[C@H](Cc1ccc(O)cc1)NC(=O)[C@H](CCCCN)NC(=O)[C@H](Cc1c[nH]c2ccccc12)NC(=O)[C@H](Cc1ccccc1)NC(=O)[C@H](CS)NC(=O)[C@H](CC(=O)O)NC(=O)[C@H]1CCCN1C(=O)[C@@H](N)[C@@H](C)O)C(=O)O [CHEMBL427632] (H-T[dP]DCFWKYCV-OH)
EC50: 2.4 nM

CN(C)CCC1(c2ccc(Cl)cc2)Cc2ccccc2CO1 (stereo not drawn) [CHEMBL1173172]
EC50: 501 nM

CN(C)CCC(NC(=O)c1ccc(-c2ccccc2)cc1)c1ccc(Cl)cc1 (stereo not drawn) [CHEMBL583981]
EC50: 77.6 nM

CC(C)[C@H](NC(=O)[C@H](CS)NC(=O)[C@H](Cc1ccc(O)cc1)NC(=O)[C@H](CCCCN)NC(=O)[C@H](Cc1c[nH]c2ccccc12)NC(=O)[C@H](Cc1ccccc1)NC(=O)[C@H](CS)NC(=O)[C@H](CC(=O)O)NC(=O)[C@H]1CCCN1C(=O)[C@@H](NC(=O)[C@@H](N)CCC(=O)O)[C@@H](C)O)C(=O)O [CHEMBL408106]
EC50: 2.5 nM

C[C@H](NC(=O)[C@H](CS)NC(=O)[C@H](Cc1ccc(O)cc1)NC(=O)[C@H](CCCCN)NC(=O)[C@H](Cc1c[nH]c2ccccc12)NC(=O)[C@H](Cc1ccccc1)NC(=O)[C@H](CS)NC(=O)[C@H](CC(=O)O)NC(=O)[C@H]1CCCN1C(=O)[C@@H](NC(=O)[C@@H](N)CCC(=O)O)[C@@H](C)O)C(=O)O [CHEMBL2372907] (H-ET[dP]DCFWKYCA-OH)
EC50: 3.2 nM

CC(C)[C@H](NC(=O)[C@H](CS)NC(=O)[C@H](Cc1ccc(O)cc1)NC(=O)[C@H](CCCCN)NC(=O)[C@H](Cc1c[nH]c2ccccc12)NC(=O)[C@H](Cc1ccccc1)NC(=O)[C@H](CS)NC(=O)[C@H](C)NC(=O)[C@H]1CCCN1C(=O)[C@@H](NC(=O)[C@@H](N)CCC(=O)O)[C@@H](C)O)C(=O)O [CHEMBL2372896]
EC50: 2.7 nM

CC(C)[C@H](NC(=O)[C@H](CS)NC(=O)[C@H](Cc1ccc(O)cc1)NC(=O)[C@H](CCCCN)NC(=O)[C@H](Cc1c[nH]c2ccccc12)NC(=O)[C@H](Cc1ccccc1)NC(=O)[C@H](CS)NC(=O)[C@H](CC(=O)O)NC(=O)[C@H]1CCCN1C(=O)[C@H](C)NC(=O)[C@@H](N)CCC(=O)O)C(=O)O [CHEMBL2372902] (H-EA[dP]DCFWKYCV-OH)
EC50: 3.3 nM

CN(C)CC[C@@H](NC(=O)c1ccc(-c2ccc(Cl)cc2)cc1)c1ccc2ccccc2c1 [CHEMBL573640]
EC50: 457 nM

CN(C)CCC(OC(=O)c1ccc(-c2ccccc2)cc1)c1ccc(Cl)cc1 (stereo not drawn) [CHEMBL205991]
EC50: 525 nM

CN(C)CCC(NC(=O)Nc1ccc(-c2ccccc2)cc1)c1ccc(Cl)cc1 (stereo not drawn) [CHEMBL206811]
EC50: 145 nM

CN(C)CCC1(c2ccc(Cl)c(Cl)c2)Cc2ccccc2C(=O)O1 (stereo not drawn) [CHEMBL1172763]
EC50: 676 nM

CN(C)CCC(OC(=O)Nc1ccc(C(F)(F)F)cc1)c1ccc(Cl)cc1 (stereo not drawn) [CHEMBL203051]
EC50: 251 nM

NCCCC[C@@H]1NC(=O)[C@H](Cc2c[nH]c3ccccc23)NC(=O)[C@H](Cc2ccc(O)cc2)NC(=O)CNC(=O)[C@@H]2CCCN2C(=O)[C@H](Cc2ccccc2)NC1=O [CHEMBL608097] (cyclo(FPGYWK))
EC50: 75.7 nM
